ChEMBL document CHEMBL6182851, “Discovery of dual CDK4/6 and BRD4 inhibitor as apoptosis and autophagy inducers against NSCLC in vitro and in vivo” (Eur J Med Chem, 2025)

Key:
Experiment in all cases: cells
A549 = conditions: Homo sapiens, A549, 48 h
Description: Antitumor activity against human A549 cells assessed as inhibition of cell viability incubated for 48 hrs by MTT assay

NCI-H1299 = conditions: Homo sapiens, NCI-H1299, 48 h
Description: Antitumor activity against human NCI-H1299 cells assessed as inhibition of cell viability incubated for 48 hrs by MTT assay

NCI-H460 = conditions: Homo sapiens, NCI-H460, 48 h
Description: Antitumor activity against human NCI-H460 cells assessed as inhibition of cell viability incubated for 48 hrs by MTT assay

| SMILES | IC50 (A549) [µM] | IC50 (NCI-H1299) [µM] | IC50 (NCI-H460) [µM] |
| --- | --- | --- | --- |
| COc1cc(OC)c2c(=O)[nH]c(-c3cc(C)c(OCC(=O)NNc4ncc5cc(C(=O)N(C)C)n(C6CCCC6)c5n4)c(C)c3)nc2c1 | 21.4 | 8.67 | 26.6 |
| COc1cc2nc(-c3ccc(OCC(=O)N4CCN(c5ccc(Nc6ncc7cc(C(=O)N(C)C)n(C8CCCC8)c7n6)nc5)CC4)cc3)[nH]c(=O)c2cc1OC | > 40 | > 40 | 38.4 |
| Cc1ccc2c(=O)[nH]c(-c3ccc(OCC(=O)N4CCN(c5ccc(Nc6ncc7cc(C(=O)N(C)C)n(C8CCCC8)c7n6)nc5)CC4)cc3)nc2c1 | > 40 | > 40 | 32.1 |
| Cc1ccc2nc(-c3ccc(OCC(=O)N4CCN(c5ccc(Nc6ncc7cc(C(=O)N(C)C)n(C8CCCC8)c7n6)nc5)CC4)cc3)[nH]c(=O)c2c1 | 33.4 | > 40 | > 40 |
| Cc1cc(-c2nc3ccc(F)cc3c(=O)[nH]2)ccc1OCC(=O)N1CCN(c2ccc(Nc3ncc4cc(C(=O)N(C)C)n(C5CCCC5)c4n3)nc2)CC1 | > 40 | > 40 | 34.3 |
| COc1cc(-c2nc3ccc(F)cc3c(=O)[nH]2)ccc1OCC(=O)N1CCN(c2ccc(Nc3ncc4cc(C(=O)N(C)C)n(C5CCCC5)c4n3)nc2)CC1 | > 40 | > 40 | 16.4 |
| COc1cc(OC)c2c(=O)[nH]c(-c3cc(Br)c(OCC(=O)N4CCN(c5ccc(Nc6ncc7cc(C(=O)N(C)C)n(C8CCCC8)c7n6)nc5)CC4)c(Br)c3)nc2c1 | 16.8 | 26.8 | 38.8 |
| COc1cc(OC)c2c(=O)[nH]c(-c3cc(C)c(OCCCCC(=O)NNc4ncc5cc(C(=O)N(C)C)n(C6CCCC6)c5n4)c(C)c3)nc2c1 | > 40 | 38.8 | 32.6 |
| COc1ccc2nc(-c3ccc(OCC(=O)N4CCN(c5ccc(Nc6ncc7cc(C(=O)N(C)C)n(C8CCCC8)c7n6)nc5)CC4)cc3)[nH]c(=O)c2c1 | 22.1 | 11.9 | 36.8 |
| CN(C)C(=O)c1cc2cnc(Nc3ccc(N4CCN(C(=O)COc5ccc(-c6nc7ccc(F)cc7c(=O)[nH]6)cc5F)CC4)cn3)nc2n1C1CCCC1 | > 40 | > 40 | > 40 |
| CN(C)C(=O)c1cc2cnc(Nc3ccc(N4CCN(C(=O)COc5c(Br)cc(-c6nc7ccc(F)cc7c(=O)[nH]6)cc5Br)CC4)cn3)nc2n1C1CCCC1 | 24.7 | 16.4 | > 40 |
| CN(C)C(=O)c1cc2cnc(Nc3ccc(N4CCN(C(=O)COc5ccc(-c6nc7ccc(Cl)cc7c(=O)[nH]6)cc5)CC4)cn3)nc2n1C1CCCC1 | 31.2 | 38.7 | > 40 |
